Assay results published in the C3SDB collision cross section collection.
“And” between values parts separate entries of the source, which are not always exact repeats. Equal values may be shown once.

Legend:
[1] = [M+H-H2O]+; instrument: DT; single field, calibrated with Agilent tune mix (Agilent)
[2] = [M+H]+; instrument: TW; calibrated with polyalanine and drug standards
[3] = instrument: DT, single field, calibrated with ESI Low Concentration Tuning Mix (Agilent)

Row | SMILES | collision cross section (N2) ([3]; [M+H]+) | collision cross section (N2) ([3]; [M-H]-) | collision cross section (N2) ([3]; [M+Na]+) | also measured
1 | O=C(O)c1ccc(O)c(O)c1 [Protocatechuic acid] | – | – | – | collision cross section (N2) [1]: 122.3 Å²
2 | NC(=O)c1ccccc1O [SALICYLAMIDE] | 124.4 Å² | 121.1 Å² | – | collision cross section (N2) [2]: 122.2 Å²
3 | Cc1cc2nc3c(=O)[nH]c(=O)nc-3n(C[C@H](O)[C@H](O)[C@H](O)CO)c2cc1C [RIBOFLAVIN] | 188.5 Å² | 186.1 Å² | – | collision cross section (N2) [2]: 184.9 Å²
4 | CN1CC(=O)N=C1N [CREATININE] | 123.2 Å² | 118.5 Å² | 132.8 Å² | collision cross section (N2) [2]: 120.2 Å²
5 | N[C@H]1C(O)O[C@H](CO)[C@@H](O)[C@@H]1O (stereo not given in full) [GLUCOSAMINE] | 138.1 Å² and 141.4 Å² | – | 143.5 Å² and 146.5 Å² | collision cross section (N2) [2]: 145.2 Å²
6 | CCCC[C@H](N)C(=O)O [NORLEUCINE] | 136 Å² | 132 Å² | – | –
7 | c1ncc2[nH]cnc2n1 [PURINE] | 121.9 Å² | 114.3 Å² | – | –
8 | NCCCC[C@H](N)C(=O)O [LYSINE] | 131.2 Å² and 131.4 Å² | 133.5 Å² and 133.7 Å² | 135.5 Å² | –
9 | O=C1CC(C(=O)O)NC(=O)N1 (stereo not given) [DIHYDROOROTATE] | – | 125.2 Å² | – | –
10 | CC(=O)NCC(=O)O [N-ACETYLGLYCINE] | – | – | 133 Å² | –
11 | C[C@]12CCC(=O)C=C1CC[C@@H]1[C@@H]2CC[C@@]2(C)[C@H]1CC[C@]2(O)C(=O)CO [CORTEXOLONE] | 187.7 Å² | – | 211 Å² | –
12 | CCCCCCCCCCCCCCCCCCCCCCC(=O)[O-] [TRICOSANOATE] | – | 196.9 Å² | 204.8 Å² | –
13 | C[N+](C)(C)CCCC(=O)[O-] [DEOXYCARNITINE] | 129.7 Å² | – | – | –
14 | OC[C@H]1O[C@H](O[C@H]2O[C@H](CO)[C@@H](O)[C@H](O)[C@H]2O)[C@H](O)[C@@H](O)[C@@H]1O [TREHALOSE] | – | 169.9 Å² | 175.7 Å² | collision cross section (N2) ([3]; [M+K]+): 179.7 Å²
15 | CC(=O)N[C@@H](CS)C(=O)O [N-ACETYLCYSTEINE] | – | – | 140.9 Å² | –
16 | O=c1ccn([C@H]2C[C@H](O)[C@@H](COP(=O)(O)OP(=O)(O)OP(=O)(O)O)O2)c(=O)[nH]1 [DEOXYURIDINE TRIPHOSPHATE] | – | 178.6 Å² | 185.3 Å² | collision cross section (N2) ([3]; [M+Na-2H]-): 188.9 Å²
17 | NC(=O)NCCC(=O)O [UREIDOPROPIONATE] | – | – | 132.4 Å² | –
18 | O=P(O)(O)OC1C(OP(=O)(O)O)C(OP(=O)(O)O)C(OP(=O)(O)O)C(OP(=O)(O)O)C1OP(=O)(O)O (stereo not given) [PHYTATE] | 215.8 Å² | 195.4 Å² | – | collision cross section (N2) ([3]; [M+Na-2H]-): 201.3 Å²
19 | Nc1ncnc2c1ncn2[C@@H]1O[C@H](COP(=O)(O)O)[C@@H](O)[C@H]1O [ADENOSINE MONOPHOSPHATE] | 171.4 Å² | – | 177 Å² | –
20 | Cc1cn([C@H]2C[C@H](O)[C@@H](CO)O2)c(=O)[nH]c1=O [THYMIDINE] | – | 154.1 Å² | 161.6 Å² | –
21 | C[C@H](CCC(=O)O)[C@H]1CC[C@H]2[C@@H]3[C@H](O)C[C@@H]4C[C@H](O)CC[C@]4(C)[C@H]3C[C@H](O)[C@]12C [CHOLATE] | – | 203.1 Å² | 197.5 Å² | –
22 | C[C@H](CCC(=O)NCCS(=O)(=O)O)[C@H]1CC[C@H]2[C@@H]3CC[C@@H]4C[C@H](O)CC[C@]4(C)[C@H]3CC[C@]12C [LITHOCHOLYLTAURINE] | – | 206.6 Å² | 213.1 Å² | –
23 | OCC1(O)OC[C@H](O)[C@@H](O)[C@@H]1O (stereo not given in full) [SORBOSE] | – | – | 139.4 Å² and 143.3 Å² | –
24 | Nc1ncnc2c1ncn2[C@@H]1O[C@H](COP(=O)(O)O)[C@@H](O)[C@H]1O [ADENOSINE-MONOPHOSPHATE] | – | 173.1 Å² | – | collision cross section (N2) ([3]; [M+Na-2H]-): 179.5 Å²
25 | CCCCCCCCCCCCCCCC(=O)O[C@H]1CC[C@@]2(C)C(=CC[C@H]3[C@@H]4CC[C@H]([C@H](C)CCCC(C)C)[C@@]4(C)CC[C@@H]32)C1 [CHOLESTERYL PALMITATE] | – | – | 286.3 Å² | –
26 | NC(CCO)C(=O)O (stereo not given) [HOMOSERINE] | 125.9 Å² | 120.2 Å² | – | –

Row | SMILES | collision cross section (N2) ([3]; [M+H]+) | collision cross section (N2) ([3]; [M-H]-) | collision cross section (N2) ([3]; [M+Na]+) | also measured
27 | O=P(O)(O)OC[C@H]1OC(O)[C@H](O)[C@@H](O)[C@@H]1O (stereo not given in full) [GLUCOSE 6-PHOSPHATE] | – | 146.5 Å² and 146.6 Å² | 158.1 Å² | collision cross section (N2) ([3]; [M+Na-2H]-): 156.9 Å²
28 | Nc1ncnc2c1ncn2[C@H]1C[C@H](O)[C@@H](COP(=O)(O)OP(=O)(O)OP(=O)(O)O)O1 [DEOXYADENOSINE TRIPHOSPHATE] | 194.8 Å² | 186.5 Å² | 202 Å² | collision cross section (N2) ([3]; [M+Na-2H]-): 185.9 Å²
29 | O=c1ccn([C@H]2C[C@H](O)[C@@H](CO)O2)c(=O)[nH]1 [DEOXYURIDINE] | – | 148.9 Å² | 156.4 Å² | –
30 | Nc1ncnc2c1ncn2[C@@H]1O[C@H](COP(=O)(O)OP(=O)(O)OP(=O)(O)O)[C@@H](O)[C@H]1O [ADENOSINE TRIPHOSPHATE] | 196.6 Å² and 196.9 Å² | 188.2 Å² and 188.3 Å² | 204 Å² and 204.2 Å² | collision cross section (N2) ([3]; [M+Na-2H]-): 193.5 Å²
31 | CC(=O)N[C@H]1[C@H](OP(=O)(O)OP(=O)(O)OC[C@H]2O[C@@H](n3ccc(=O)[nH]c3=O)[C@H](O)[C@@H]2O)O[C@H](CO)[C@@H](O)[C@@H]1O [URIDINE DIPHOSPHATE-N-ACETYLGLUCOSAMINE] | 210.5 Å² | 224 Å² | 218.1 Å² | collision cross section (N2) ([3]; [M+Na-2H]-): 227.9 Å²
32 | CC(=O)OCC(=O)[C@H]1CC[C@H]2[C@@H]3CCC4=CC(=O)CC[C@]4(C)[C@H]3CC[C@]12C [DEOXYCORTICOSTERONE ACETATE] | 196.9 Å² | – | – | –
33 | N[C@@H](CCC(=O)N[C@@H](CS)C(=O)NCC(=O)O)C(=O)O [GLUTATHIONE REDUCED] | 167.8 Å² | 162.1 Å² | 167 Å² | collision cross section (N2) ([3]; [M+Na-2H]-): 164.8 Å²
34 | Nc1ncnc2c1ncn2[C@@H]1O[C@H](COP(=O)(O)OP(=O)([O-])OC[C@H]2O[C@@H]([n+]3cccc(C(=O)O)c3)[C@H](O)[C@@H]2O)[C@@H](O)[C@H]1OP(=O)(O)O [NICOTINIC ACID ADENINE DINUCLEOTIDE PHOSPHATE] | 230.4 Å² | 230.3 Å² | – | –
35 | OC1OC[C@@H](O)[C@H](O)[C@@H]1O (stereo not given in full) [LYXOSE] | – | – | 136.8 Å² | –
36 | OCc1cccc(O)c1 [3-HYDROXYBENZYL ALCOHOL] | – | 122.3 Å² | – | –
37 | CSC[C@H]1O[C@@H](n2cnc3c(N)ncnc32)[C@H](O)[C@@H]1O [METHYLTHIOADENOSINE] | 162.5 Å² and 170.7 Å² | 166.9 Å² | 172.4 Å² | –
38 | Cc1ncc(CO)c(CO)c1O [PYRIDOXINE] | 134.4 Å² | 132.4 Å² | – | collision cross section (N2) [2]: 132.3 Å²
39 | C[C@]12CCC(=O)C=C1CC[C@@H]1[C@@H]2[C@@H](O)C[C@@]2(C)[C@H]1CC[C@]2(O)C(=O)CO [CORTISOL] | 188.6 Å² | 191.9 Å² | 212.9 Å² | collision cross section (N2) ([3]; [M+K]+): 210.7 Å²
40 | COc1cc(C(O)C(=O)O)ccc1O (stereo not given) [3-METHOXY-4-HYDROXYMANDELATE] | – | 143.5 Å² | – | –
41 | O=C(O)Cc1cnc[nH]1 [4-IMIDAZOLEACETATE] | 123.9 Å² | – | – | –
42 | CC(=O)N[C@@H](CC(=O)O)C(=O)O [N-ACETYLASPARTATE] | – | 131 Å² | 139.3 Å² | –
43 | O=C(O)/C=C/c1cnc[nH]1 [UROCANATE] | 134.6 Å² | 120.9 Å² | – | –
44 | Nc1ccccc1O [2-AMINOPHENOL] | 118.3 Å² and 124.8 Å² | 118 Å² | – | –
45 | O=c1ccn([C@@H]2O[C@H](COP(=O)(O)O)[C@@H](O)[C@H]2O)c(=O)[nH]1 [URIDINE MONOPHOSPHATE] | 165.7 Å² | 161.2 Å² | 172.3 Å² | collision cross section (N2) ([3]; [M+Na-2H]-): 163.6 Å²
46 | NCCC[C@H](N)C(=O)O [L-ORNITHINE] | 127.7 Å² | – | – | –
47 | NCCOP(=O)(O)O [O-PHOSPHOETHANOLAMINE] | – | 123.2 Å² | – | –
48 | OC[C@H]1O[C@H](O)[C@H](O)[C@@H](O)[C@@H]1O [ALPHA-D-GLUCOSE] | – | – | 146.6 Å² | –
49 | NCCOP(=O)(O)O [ETHANOLAMINE PHOSPHATE] | – | 123 Å² | – | –
50 | Nc1ccccc1C(=O)CC(N)C(=O)O (stereo not given) [KYNURENINE] | 149.3 Å² and 149.6 Å² | – | 152.8 Å² and 153.1 Å² | collision cross section (N2) [2]: 146 Å²
51 | OC[C@H]1O[C@H](OC[C@H]2O[C@H](OC[C@H]3O[C@H](O[C@]4(CO)O[C@H](CO)[C@@H](O)[C@@H]4O)[C@H](O)[C@@H](O)[C@@H]3O)[C@H](O)[C@@H](O)[C@H]2O)[C@H](O)[C@@H](O)[C@H]1O [STACHYOSE] | – | 224.1 Å² | 235.1 Å² | –
